#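 Method: 48-hour compound exposure of cells in 96-well plates, five concentrations, linear interpolation of endpoints. TGI is the concentration that stops growth completely.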
# Assays:
# Experiment in all cases: NCI tumour cell line growth inhibition, 48 h
# [1] = system: 786-0 renal
# [2] = system: A498 renal
# [3] = system: A549 NSCLC
# [4] = system: ACHN renal
# [5] = system: BT-549 breast
# [6] = system: CAKI-1 renal
# [7] = system: CCRF-CEM leukemia
# [8] = system: COLO 205 colon
# [9] = system: DLD-1 colon
# [10] = system: DMS 114 small cell lung
# [11] = system: DMS 273 small cell lung
# [12] = system: DU-145 prostate
# [13] = system: EKVX NSCLC
# [14] = system: HCC-2998 colon
# [15] = system: HCT-116 colon
# [16] = system: HCT-15 colon
# [17] = system: HL-60(TB) leukemia
# [18] = system: HOP-18 NSCLC
# [19] = system: HOP-62 NSCLC
# [20] = system: HOP-92 NSCLC
# [21] = system: HS 578T breast
# [22] = system: HT29 colon
# [23] = system: IGROV1 ovarian
# [24] = system: K-562 leukemia
# [25] = system: KM12 colon
# [26] = system: KM20L2 colon
# [27] = system: LOX IMVI melanoma
# [28] = system: LXFL 529 NSCLC
# [29] = system: M14 melanoma
# [30] = system: M19-MEL melanoma
# [31] = system: MALME-3M melanoma
# [32] = system: MCF7 breast
# [33] = system: MDA-MB-231 breast
# [34] = system: MDA-MB-435
# [35] = system: MDA-N
# [36] = system: MOLT-4 leukemia
# [37] = system: NCI-H226 lung
# [38] = system: NCI-H23 lung
# [39] = system: NCI-H460 lung
# [40] = system: NCI-H522 lung
# [41] = system: NCI/ADR-RES ovarian
# [42] = system: OVCAR-3 ovarian
# [43] = system: OVCAR-4 ovarian
# [44] = system: OVCAR-5 ovarian
# [45] = system: OVCAR-8 ovarian
# [46] = system: PC-3 prostate
# [47] = system: RPMI-8226 leukemia
# [48] = system: RXF 393 renal
# [49] = system: RXF-631 renal
# [50] = system: SF-268 CNS
# [51] = system: SF-295 CNS
# [52] = system: SF-539 CNS
# [53] = system: SK-MEL-2 melanoma
# [54] = system: SK-MEL-28 melanoma
# [55] = system: SK-MEL-5 melanoma
# [56] = system: SK-OV-3 ovarian
# [57] = system: SN12C renal
# [58] = system: SNB-19 CNS
# [59] = system: SNB-75 CNS
# [60] = system: SNB-78 CNS
# [61] = system: SR leukemia
# [62] = system: SW-620 colon
# [63] = system: T-47D breast
# [64] = system: TK-10 renal
# [65] = system: U251 CNS
# [66] = system: UACC-257 melanoma
# [67] = system: UACC-62 melanoma
# [68] = system: UO-31 renal
# [69] = system: XF 498 CNS
# [70] = system: P388 leukemia
# [71] = system: P388/ADR leukemia
# [72] = system: SN12K1 renal
structure (smiles),measurement,setting,value
CC(=O)N(O)CCCCCNC(=O)CCC(=O)N(O)CCCCCNC(=O)CCC(=O)N(O)CCCCCN,TGI,[1],> 100 µM
same,TGI,[2],> 100 µM
same,TGI,[3],> 100 µM
same,TGI,[4],> 100 µM
same,TGI,[5],> 100 µM
same,TGI,[6],> 100 µM
same,TGI,[7],> 54.4 µM
same,TGI,[8],> 100 µM
same,TGI,[9],> 100 µM
same,TGI,[10],> 100 µM
same,TGI,[11],> 100 µM
same,TGI,[12],> 60.1 µM
same,TGI,[13],> 100 µM
same,TGI,[14],> 100 µM
same,TGI,[15],> 100 µM
same,TGI,[16],> 100 µM
same,TGI,[17],> 76.9 µM
same,TGI,[18],83.2 µM
same,TGI,[19],> 100 µM
same,TGI,[20],> 100 µM
same,TGI,[21],> 100 µM
same,TGI,[22],> 100 µM
same,TGI,[23],> 100 µM
same,TGI,[24],> 100 µM
same,TGI,[25],> 100 µM
same,TGI,[26],> 100 µM
same,TGI,[27],> 100 µM
same,TGI,[28],> 100 µM
same,TGI,[29],> 100 µM
same,TGI,[30],> 100 µM
same,TGI,[31],> 100 µM
same,TGI,[32],> 100 µM
same,TGI,[33],> 100 µM
same,TGI,[34],> 100 µM
same,TGI,[35],> 100 µM
same,TGI,[36],> 82.8 µM
same,TGI,[37],> 92.3 µM
same,TGI,[38],> 100 µM
same,TGI,[39],> 54.9 µM
same,TGI,[40],> 100 µM
same,TGI,[41],> 100 µM
same,TGI,[42],> 100 µM
same,TGI,[43],> 100 µM
same,TGI,[44],84 µM
same,TGI,[45],> 100 µM
same,TGI,[46],> 100 µM
same,TGI,[47],> 100 µM
same,TGI,[48],> 100 µM
same,TGI,[49],> 100 µM
same,TGI,[50],> 100 µM
same,TGI,[51],> 100 µM
same,TGI,[52],> 92.3 µM
same,TGI,[53],> 100 µM
same,TGI,[54],> 100 µM
same,TGI,[55],> 85.5 µM
same,TGI,[56],> 100 µM
same,TGI,[57],> 100 µM
same,TGI,[58],> 100 µM
same,TGI,[59],> 100 µM
same,TGI,[60],> 100 µM
same,TGI,[61],> 77.5 µM
same,TGI,[62],> 100 µM
same,TGI,[63],> 100 µM
same,TGI,[64],> 100 µM
same,TGI,[65],> 100 µM
same,TGI,[66],> 100 µM
same,TGI,[67],> 100 µM
same,TGI,[68],> 100 µM
same,TGI,[69],> 100 µM
COc1cc2c(oc(=O)c3cc(C)cc(OC)c32)c2c(C3OC(C)C(O)C(C)(O)C3O)ccc(O)c12 (stereo unspecified),TGI,[2],1.29 µM
same,TGI,[3],7.4 µM
same,TGI,[6],2.06 µM
same,TGI,[7],2.41 µM
same,TGI,[8],1.41 µM
same,TGI,[9],4.56 µM
same,TGI,[10],1.17 µM
same,TGI,[11],1.27 µM
same,TGI,[13],2.31 µM
same,TGI,[14],1.76 µM
same,TGI,[15],6.12 µM
same,TGI,[16],3.65 µM
same,TGI,[17],0.251 µM
same,TGI,[18],5.3 µM
same,TGI,[19],1.08 µM
same,TGI,[20],4.32 µM
same,TGI,[22],4.81 µM
same,TGI,[23],5.59 µM
same,TGI,[24],3.73 µM
same,TGI,[25],5.41 µM
same,TGI,[26],5.04 µM
same,TGI,[27],1.71 µM
same,TGI,[30],1.64 µM
same,TGI,[31],1.45 µM
same,TGI,[32],3.99 µM
same,TGI,[36],0.875 µM
same,TGI,[37],1.21 µM
same,TGI,[38],2.16 µM
same,TGI,[39],0.763 µM
same,TGI,[40],1.73 µM
same,TGI,[41],2.51 µM
same,TGI,[42],2.51 µM
same,TGI,[43],2.14 µM
same,TGI,[44],2.89 µM
same,TGI,[45],1.99 µM
same,TGI,[70],2.03 µM
same,TGI,[71],3.41 µM
same,TGI,[47],1.92 µM
same,TGI,[48],1.18 µM
same,TGI,[50],2.1 µM
same,TGI,[51],1.29 µM
same,TGI,[52],1.73 µM
same,TGI,[53],1.56 µM
same,TGI,[54],1.85 µM
same,TGI,[55],1.79 µM
same,TGI,[56],4.45 µM
same,TGI,[57],2.39 µM
same,TGI,[72],1.51 µM
same,TGI,[58],4.63 µM
same,TGI,[59],1.46 µM
same,TGI,[60],5.32 µM
same,TGI,[62],7.74 µM
same,TGI,[65],2.42 µM
same,TGI,[66],1.62 µM
same,TGI,[67],1.13 µM
same,TGI,[68],3.19 µM
same,TGI,[69],1.15 µM
